Data taken from patent US8754056B2, “Enhancing vessel lesion homing and repair potential of stem cells” (University of Florida Research Foundation, Inc., priority 2008, dated 2014).
[PMO-N] = phosphorodiamidate morpholino subunit (N: the base)

What was measured:
[1] = test system: human peripheral blood-derived CD34+ cells; test: NO production by DAF-FM fluorescence imaging; format: cell-based; conditions: for NO generation in response to SDF-1 after PMO treatment / NO-release by SDF-1 in anti-TGFβ-PMO treated cells with inhibitor: diabetic CD34+ cells; for NO generation in response to SDF-1 after PMO treatment / NO-release in response to SDF-1 after PMO pre-treatment: PMO 40 μg/mL; for NO-release in response to SDF-1 after PMO pre-treatment: n=3
Experimental: Human CD34^+ EPCs were incubated overnight with either control-PMO or anti-TGF-β-PMO at a concentration of 40 μg/mL. NO production was quantified in human peripheral blood-derived CD34^+ cells using NO-sensitive cell-permeant fluorescent dye DAF-FM. CD34^+ EPCs were loaded with 20 μM DAF-FM diacetate (Invitrogen) in 500 μl, of DPBS (MediaTech. Inc.) with glucose (1 mg/mL) and L-arginine (1 mM). […] Pharmacological inhibitors were added 30 min before the addition of DAF-FM. […] Cells were washed (4×) and 75 μL of cell suspension was placed in the coverslip-bottomed dish for fluorescence imaging. Fluorescent images were obtained using a computer-controlled monochromator excitation light source (TILL Polychrome II, TILL-Photonics, Martinsried, Germany) and a cooled CCD camera with exposure control (SensiCam, Till-photonics). During excitation at 488 nm with 50 ms of exposure time, emission at 510 nm was collected by the camera at 2×2 binning and images were acquired by Till-Vision software (Till Photonics, Martinsried, Germany). Images were corrected for background and maximum fluorescence intensity in individual cells was quantified in terms of arbitrary fluorescence units using Till-Vision software. Changes in fluorescence with different treatments were expressed as percent change with respect to cells that were used as time/vehicle control i.e. cells received no treatments but loaded with DAF-FM. Up to 75 numbers of cells were imaged per sample/donor and ‘n’ denotes number of donors used.

human CD34+ cells = test: Survival in the absence of growth factors and later proliferation of CD34+ cells; format: cell-based
Experimental: Two discrete cord blood stem cell populations, lin^−CD34^+CD38^+ (FIG. 5A) or lin^−CD34^+CD38^− (FIG. 5B), in addition to lin^−CD34^+ cells from peripheral blood and bone marrow (FIG. 6A) were either treated with PMO containing medium or not. After 5 days, all cells received growth factors (Tpo, SCF, IL-3, IL-6) to detect live, growth factor responsive cells and their proliferative potential after 14 days was determined. By day 14, cells exposed to 20-300 μg/mL of anti-TGF-β-PMO typically formed macro colonies (>100,000 cells) after the addition of growth factors (FIG. 5).
Human cord blood and bone marrow CD34^+ EPCs were purchased from AllCells (Emeryville, Calif.) as positively selected lin^−, magnetic bead-purified frozen cell populations that were >95% CD34^+ cells by FACS analysis. Cells were thawed in a 37° C. water bath, diluted in excess IMDM 10% FBS, pelleted by centrifugation (300×g for 10 min), washed by centrifugation one additional time and, finally, counted using a hemocytometer. Viability, as determined by trypan blue dye exclusion, was routinely >95% after thaw and washes.
Further purification was carried out prior to survival and proliferation studies. Cells were adjusted to 5×10^5/mL in phosphate-buffered saline (PBS) containing 2% (v/v) fetal bovine serum (FBS) and incubated with single murine antibody controls and murine anti-CD34-PE, anti-CD45-PE-Cy5 and anti-CD38-APC. Just prior to cell sorting, propidium iodide (2 μg/mL) was added to detect non-viable cells. CD34^+, CD45^mid cells (HSCs are CD45^mid expressing and can be clearly separated from contaminating lymphocytes, which are CD45^high expressing) and CD38^+/− cells were directly sorted into 96-well round bottom plates (10±2 cells/well) containing IMDM, 10% horse serum, 10% FBS, 100 units/mL of penicillin, 10 μg/mL streptomycin, 20 mM 1-glutamine and 1 μM hydrocortisone±PMOs. At day 5, a hematopoietic growth factor cocktail (Hgf-cocktail) consisting of 20 ng/mL thrombopoietin, 50 ng/mL stem cell factor, 50 ng/mL interleukin-3 and 20 ng/mL interleukin-6, all purchased from PeproTech, N.J., was added to the wells. Cells were followed by daily direct light microscopy (×200) to assess cell proliferation. Cells that proliferated in response to growth factors were scored as cells that survived after the 5-day period in the absence of growth factors. […]
CD34^+ EPCs were isolated from cord blood, human bone marrow and peripheral blood as described above and sorted 10 cells per well in a 96 well plate in either the presence or absence of growth factors and in presence or absence of anti-TGFβ-PMO. […] This incubation period was previously determined by measuring the uptake of fluorescein isothyocyanate (FITC)-labelled PMOs in HSCs.

CXCR4 = test: Real-time PCR of CXCR4 mRNA in CD34+ EPCs; format: cell-based, human; conditions: normalized to β-actin
Experimental: (§1) Total mRNA from CD34 cells was isolated by using the Total RNA Mini Kit (Bio-Rad, Hercules, Calif.). The mRNA was transcribed by using an iScript cDNA Synthesis Kit (BioRad), and real-time PCR was performed using primers for CXCR4, CXCR7, or beta actin as per manufacturer's instructions (Ambion, Austin, Tex.). Real-time PCR was performed on 7500 Fast Real-Time PCR system for 40 cycles and all reactions were performed in triplicate.

murine HSCs = test: CNV laser injury model, homing of adoptively transferred GFP+ murine HSCs; format: in vivo, mice; conditions: overnight pre-treatment of HSCs, vs control-PMO (p<0.05) or medium alone
Normal MPB CD34+CD45+ = test: Surface antigen expression after PMO treatment, normal cells; format: cell-based, human
CD34+ EPCs = test: Modified Boyden chamber migration to SDF-1 after PMO treatment; format: cell-based, human; conditions: SDF-1 100 nM
CXCR7 = test: Real-time PCR of CXCR7 mRNA in CD34+ EPCs; format: cell-based, human; conditions: non-diabetic CD34+ cells, P<0.001
Experimental: as §1

Diabetic PB CD34+CD45+ = test: Surface antigen expression after PMO treatment, diabetic cells; format: cell-based, human
human CD34+ EPCs = test: Retinal ischemia-reperfusion injury model, incorporation of injected human CD34+ EPCs; format: in vivo, mice; conditions: for repair of acellular capillaries: diabetic CD34+ cells
Experimental: Mice (n=20) were kept under inhalation anaesthesia (isoflurane vapor) during induction of ischemia. The anterior chamber of the eye was cannulated with a 30-gauge needle attached to an infusion line of sterile saline, and the eye was subjected to 2 h of hydrostatic pressure (80-90 mmHg, measured by TonoPen; Medtronic Solan, Jacksonville, Fla.). […] The contralateral eye served as a control.
Seven days after the insult, at which time retinal capillary damage was appreciable,^14,15 the animals were injected intravitreally with isolated human CD34^+ EPCs pre-treated with either […] or control-PMO. After 48 h the animals were euthanized, the eyes were enucleated and the neural retinas were isolated by dissection. The retinas were permeabilized as described above, and reacted with rhodamine-conjugated R. communis agglutinin I. To assess the location of the injected human CD34^+ EPCs, retinas were further incubated with mouse monoclonal anti-human nuclear antigen (Chemicon) followed by secondary staining with FITC-conjugated goat-anti-mouse IgG antibodies (Chemicon). Confocal images of six random fields were taken and fluorescence intensity in each 100 μm^2 was analysed using ImageJ software. Appropriate non-immune antibodies, as well as incubation without primary antibody, were used to determine background and non-specific antibody binding.

[2] = non-diabetic (normal) CD34+ EPCs

Row | Compound | NO generation in response to SDF-1 after PMO treatment ([1]; n=4) | NO-release in response to SDF-1 after PMO pre-treatment ([1]; non-diabetic CD34+ cells) | CXCR4 mRNA expression (CXCR4; diabetic CD34+ cells) | CXCR4 mRNA expression (CXCR4; [2]) | CD14 % of cells (Normal MPB CD34+CD45+) | CD38 % of cells (Normal MPB CD34+CD45+) | CD105 % of cells (Normal MPB CD34+CD45+) | CXCR4 % of cells (Normal MPB CD34+CD45+) | VEGFR-2 % of cells (Normal MPB CD34+CD45+) | CD14 % of cells (Diabetic PB CD34+CD45+) | CD38 % of cells (Diabetic PB CD34+CD45+) | CD105 % of cells (Diabetic PB CD34+CD45+) | CXCR4 % of cells (Diabetic PB CD34+CD45+) | VEGFR-2 % of cells (Diabetic PB CD34+CD45+) | repair of acellular capillaries (human CD34+ EPCs) | further results
1 | anti-TGF-β-PMO: phosphorodiamidate morpholino antisense oligomer, 5′ GAG GGC GGC ATG III GAG GC 3′ (SEQ ID NO: 2), AVI BioPharma sequence ID#0-1-01067 (antisense GAGGGCGGCATGNNNGAGGC; all [PMO-N], the base at N not given here; further chemistry not fully specified) | 69±7% | 54±4% | significantly increased | down-regulation | 73.3 % of cells | 82.3 % of cells | 62.9 % of cells | 85.3 % of cells | 56.5 % of cells | 62.4 % of cells | 94.2 % of cells | 51.7 % of cells | 72.7 % of cells | 62.4 % of cells | robust reparative response | cell survival (human CD34+ cells; 40 μg/mL, compared with other concentrations): greatest cell survival; proliferation vs control-PMO (human CD34+ cells; BM-derived cells): increased proliferation; macro colony size by day 14 after addition of growth factors (human CD34+ cells; cord blood cells, 20-300 μg/mL, growth factors added after 5 days): > 100,000 cells; proliferation vs control-PMO (human CD34+ cells; peripheral blood CD34+ cells from diabetics and age- and sex-matched controls): enhanced proliferation; numbers of GFP+ HSCs recruited to the laser injury site (murine HSCs): substantial increase; migration to SDF-1 vs control-PMO (CD34+ EPCs; diabetic CD34+ EPCs, P<0.05): enhanced migration; migration to SDF-1 vs control-PMO (CD34+ EPCs; non-diabetic CD34+ EPCs, P<0.01): enhanced migration; CXCR7 mRNA expression (CXCR7): increased; increase in incorporation of cells to injured retinal capillaries vs control-PMO (human CD34+ EPCs; FITC immunoreactivity per 100 μm^2 area, P<0.001): 2.5 fold; homing to areas of ischemic injury (human CD34+ EPCs; pre-treated EPCs injected intravitreally, vs control-PMO): profound homing
2 | O=c1cc(N2CCOCC2)oc2c(-c3ccccc3)cccc12 [LY294002] | – | – | – | – | – | – | – | – | – | – | – | – | – | – | – | NO release by SDF-1 after inhibitor pre-treatment ([1]; non-diabetic CD34+ cells, SDF-1 100 nM, inhibitor 20 μM): 12±3%
3 | c1cc(CN2CCCNCCNCCCNCC2)ccc1CN1CCCNCCNCCCNCC1 [AMD3100] | – | – | – | – | – | – | – | – | – | – | – | – | – | – | – | NO-release by SDF-1 in anti-TGFβ-PMO treated cells with inhibitor ([1]; inhibitor 10 μM): 28±2%; NO release by SDF-1 after inhibitor pre-treatment ([1]; non-diabetic CD34+ cells, SDF-1 100 nM, inhibitor 10 μM): 3±2%
4 | control-PMO: control morpholino oligomer, 5′ CGTTCTGATAGCTGTACCTC 3′ (SEQ ID NO: 1), AVI BioPharma sequence ID#0-1-0-555 (antisense CGTTCTGATAGCTGTACCTC; all phosphorodiamidate morpholino (PMO)) [reference compound] | 9.2% | 60±5% | not changed | increased | 69.3 % of cells | 79.9 % of cells | 71.0 % of cells | 88.5 % of cells | 62.9 % of cells | 59.3 % of cells | 92.2 % of cells | 58.8 % of cells | 74.1 % of cells | 59.3 % of cells | essentially no repair | –
5 | SDF-1: the principal stem/progenitor cell homing factor, used as chemotaxis effector and NO release stimulus | – | – | – | – | – | – | – | – | – | – | – | – | – | – | – | increase in NO generation vs time-control ([1]; non-diabetic CD34+ cells, SDF-1 100 nM, n=4): 45±4%
6 | pertussis toxin | – | – | – | – | – | – | – | – | – | – | – | – | – | – | – | NO-release by SDF-1 in anti-TGFβ-PMO treated cells with inhibitor ([1]; inhibitor 100 ng/mL): 16±3%; NO release by SDF-1 after inhibitor pre-treatment ([1]; non-diabetic CD34+ cells, SDF-1 100 nM, inhibitor 100 ng/ml): 20±9%
